For 24 molecules, GI50 and IC50 results are on record in patent US10125118B2, “Heteroaryl compounds and their use as therapeutic drugs” (Dong-A Socio Holdings Co., Ltd., priority 2015, dated 2018).

Each structure is given as a SMILES string.

The test system of assay [1] is CD8-MerTK in Ba/F3-CDM cells. The assay can be described thus: In cell MER kinase assay, Ba/F3-CDM cell proliferation without IL-3 (Celltiter-Glo). Type of assay: cell-based, murine. The conditions noted are these: 48 hours compound treatment, read-out: Cell growth inhibition (GI50). The gist of the method: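 Ba/F3 cells, IL-3-dependent, transfected with CD8-MerTK and grown without IL-3 in DMEM/10% FBS. IL-3-supplemented Ba/F3 cells run in parallel as a cytotoxicity control.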
Background: In ATP-based viability assays light output follows the ATP content of the culture.

Assay [2] concerns the target human c-MER catalytic domain (Homo sapiens (Human), UniProt Q12866). The assay can be described thus: LanthaScreen TR-FRET kinase assay, c-MER. The note with it: read-out: Mer TK inhibition (IC50); Biochemical IC50, TR-FRET, 10 uM ATP.

human c-MER catalytic domain, sequence (Q12866 587-858): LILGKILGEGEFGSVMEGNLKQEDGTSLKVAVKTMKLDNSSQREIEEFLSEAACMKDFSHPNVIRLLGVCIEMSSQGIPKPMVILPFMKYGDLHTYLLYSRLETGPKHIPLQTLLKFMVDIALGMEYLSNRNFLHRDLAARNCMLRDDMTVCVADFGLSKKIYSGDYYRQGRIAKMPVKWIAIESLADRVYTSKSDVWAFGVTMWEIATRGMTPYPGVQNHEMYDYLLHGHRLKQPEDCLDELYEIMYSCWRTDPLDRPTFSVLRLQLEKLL

For the molecule `Cc1ccc(CO[C@H]2CNC[C@@H]2NC(=O)c2cc(-c3cnn(C)c3)cnc2N)cc1` [Example 415, 2-amino-5-(1-methyl-1H-pyrazol-4-yl)-N-((3S,4S)-4-((4-methylbenzyl)oxy)pyrrolidin-3-yl)nicotinamide], the GI50 (usually the concentration at which growth is held to half of that of the control) in assay [1] was greater than 1000 nM. For the same molecule, in assay [2], the IC50 (in general, the concentration that inhibits the measured activity by half) was less than 10 nM.

Turning to `CN1CCN(Cc2ccc(-c3ccc(CO[C@H]4CNC[C@@H]4NC(=O)c4cc(-c5cnn(C)c5)cnc4N)cc3)cc2C(F)(F)F)CC1` [Example 436, 2-amino-5-(1-methyl-1H-pyrazol-4-yl)-N-((3S,4S)-4-((4′-((4-methylpiperazin-1-yl)methyl)-3′-(trifluoromethyl)-[1,1′-biphenyl]-4-yl)methoxy)-pyrrolidin-3-yl)nicotinamide], the GI50 in assay [1] lay within 500 to 1000 nM. The IC50 in assay [2] was less than 10 nM.

Take `CN1CCN(c2ccc(-c3ccc(CO[C@H]4CCC[C@@H]4NC(=O)c4cc(-c5cnn(C)c5)cnc4N)cc3)cc2)CC1` [Example 146, 2-amino-5-(1-methyl-1H-pyrazol-4-yl)-N-((1S,2S)-2-((4′-(4-methylpiperazin-1-yl)-[1,1′-biphenyl]-4-yl)methoxy)cyclopentyl)nicotinamide]: the GI50 in assay [1] is less than 100 nM. For the same molecule, the IC50 in assay [2] is less than 10 nM.

As for `CC(c1ccc(-c2ccc(CO[C@H]3CCC[C@@H]3NC(=O)c3cc(C#N)cnc3N)cc2)cc1)N1CCN(C)CC1` (stereo partly drawn) [Example 233, 2-amino-5-cyano-N-((1S,2S)-2-((4′-(1-(4-methylpiperazin-1-yl)-ethyl)-[1,1′-biphenyl]-4-yl)methoxy)cyclopentyl)nicotinamide], the GI50 in assay [1] was in the range of 100 to 500 nM. For the same molecule, the IC50 in assay [2] is less than 10 nM.

With `Cn1cc(-c2cnc(N)c(C(=O)N[C@H]3CCC[C@@H]3OCc3ccc(-c4ccc(CN5CCN(CCO)CC5)c(C(F)(F)F)c4)cc3)c2)cn1` [Example 205, 2-amino-N-((1S,2S)-2-((4′-((4-(2-hydroxyethyl)piperazin-1-yl)methyl)-3′-(trifluoromethyl)-[1,1′-biphenyl]-4-yl)methoxy)cyclopentyl)-5-(1-methyl-1H-pyrazol-4-yl)nicotinamide], the GI50 in assay [1] is less than 100 nM. The IC50 in assay [2] was less than 10 nM.

On to `C[C@@H]1CN(Cc2ccc(-c3ccc(CO[C@H]4CCC[C@@H]4NC(=O)c4cc(-c5cnn(C)c5)cnc4N)cc3)cc2)CCN1` [Example 185, 2-amino-5-(1-methyl-1H-pyrazol-4-yl)-N-((1S,2S)-2-((4′-(((R)-3-methylpiperazin-1-yl)methyl)-[1,1′-biphenyl]-4-yl)methoxy)cyclopentyl)nicotinamide], for which the GI50 in assay [1] lay within 100 to 500 nM. Moreover, the IC50 in assay [2] is less than 10 nM.

In the case of `CN1CCN(Cc2ccc(-c3ccc(CO[C@H]4CCC[C@@H]4NC(=O)c4cc(-c5ccc(F)nc5)cnc4N)cc3)cc2)CC1` [Example 386, 6-amino-6′-fluoro-N-((1S,2S)-2-((4′-((4-methylpiperazin-1-yl)methyl)-[1,1′-biphenyl]-4-yl)methoxy)cyclopentyl)-[3,3′-bipyridine]-5-carboxamide], the 50% growth inhibitory concentration (GI50) in assay [1] is less than 100 nM. For the same molecule, the IC50 in assay [2] is less than 10 nM.

Turning to `CC(c1ccc(-c2ccc(CO[C@H]3CCC[C@@H]3NC(=O)c3cc(-c4cnn(C)c4)cnc3N)cc2)cc1)N1C[C@@H](C)N(CCO)[C@@H](C)C1` (stereo partly drawn) [Example 211], the GI50 in assay [1] was less than 100 nM. Besides, the IC50 in assay [2] is less than 10 nM.

For the molecule `Cn1cc(-c2cnc(N)c(C(=O)N[C@H]3CCC[C@@H]3OCc3ccc(-c4ccc(N5CCNCC5)nc4)cc3)c2)cn1` [Example 147, 2-amino-5-(1-methyl-1H-pyrazol-4-yl)-N-((1S,2S)-2-((4-(6-(piperazin-1-yl)pyridin-3-yl)benzyl)oxy)cyclopentyl)nicotinamide], in assay [1], the GI50 lay within 100 to 500 nM. In addition, the IC50 in assay [2] is less than 10 nM.

As for `CC(c1ccc(-c2ccc(CO[C@H]3CNC[C@@H]3NC(=O)c3cc(-c4cnn(C)c4)cnc3N)cc2)cc1)N1CCN(CCO)CC1` (stereo partly drawn) [Example 442, 2-amino-N-((3S,4S)-4-((4′-(1-(4-(2-hydroxyethyl)piperazin-1-yl)ethyl)-[1,1′-biphenyl]-4-yl)methoxy)pyrrolidin-3-yl)-5-(1-methyl-1H-pyrazol-4-yl)nicotinamide], the GI50 in assay [1] is greater than 1000 nM. Besides, in assay [2], the concentration for half-maximal inhibition (IC50) is less than 10 nM.

On to `CCc1cc(CO[C@H]2CN(C)C[C@@H]2NC(=O)c2cc(-c3cnn(C4CCN(C)CC4)c3)cnc2N)ccc1C` [Example 433, 2-amino-N-((3S,4S)-4-((3-ethyl-4-methylbenzyl)oxy)-1-methylpyrrolidin-3-yl)-5-(1-(1-methylpiperidin-4-yl)-1H-pyrazol-4-yl)nicotinamide], for which the GI50 in assay [1] lay within 100 to 500 nM. For the same molecule, the IC50 in assay [2] was less than 10 nM.

Turning to `Cc1ccc(CO[C@H]2CCC[C@@H]2NC(=O)c2cc(-c3ccc(CN4CCC(N5CCOCC5)C4)cc3)cnc2N)cc1C` (stereo partly drawn) [Example 337, 2-amino-N-((1S,2S)-2-((3,4-dimethylbenzyl)oxy)cyclopentyl)-5-(4-((3-morpholinopyrrolidin-1-yl)methyl)phenyl)nicotinamide], in assay [1], the GI50 lay in the range of 500 to 1000 nM. Further, the IC50 in assay [2] is less than 10 nM.

Turning to `CCc1cccc(CO[C@H]2CNC[C@@H]2NC(=O)c2cc(-c3cnn(C)c3)cnc2N)c1` [Example 416, 2-amino-N-((3S,4S)-4-((3-ethylbenzyl)oxy)pyrrolidin-3-yl)-5-(1-methyl-1H-pyrazol-4-yl)nicotinamide], in assay [1], the GI50 lay within 100 to 500 nM. For the same molecule, in assay [2], the IC50 was less than 10 nM.

Turning to `CN1CCN(Cc2ccc(-c3ccc(CO[C@H]4CCC[C@@H]4NC(=O)c4cc(-c5cnn(C)c5)cnc4N)c(F)c3)cc2)CC1` [Example 156, 2-amino-N-((1S,2S)-2-((3-fluoro-4′-((4-methylpiperazin-1-yl)-methyl)-[1,1′-biphenyl]-4-yl)methoxy)cyclopentyl)-5-(1-methyl-1H-pyrazol-4-yl)-nicotinamide], in assay [1], the GI50 was less than 100 nM. In assay [2], the IC50 is less than 10 nM.

With `Cn1cc(-c2cnc(N)c(C(=O)N[C@H]3CCC[C@@H]3OCc3ccc(C#CCCCCO)cc3)c2)cn1` [Example 251, 2-amino-N-((1S,2S)-2-((4-(6-hydroxyhex-1-yn-1-yl)benzyl)oxy)-cyclopentyl)-5-(1-methyl-1H-pyrazol-4-yl)nicotinamide], the GI50 in assay [1] is greater than 1000 nM. Further, the IC50 in assay [2] is less than 10 nM.

For `C[C@@H](c1ccc(-c2ccc(CO[C@H]3CCC[C@@H]3NC(=O)c3cc(-c4ccc(F)nc4)cnc3N)cc2)cc1)N1CCN(CCO)CC1` [Example 226, 6-amino-6′-fluoro-N-((1S,2S)-2-((4′-((S)-1-(4-(2-hydroxyethyl)piperazin-1-yl)ethyl)-[1,1′-biphenyl]-4-yl)methoxy)cyclopentyl)-[3,3′-bipyridine]-5-carboxamide], the GI50 in assay [1] was less than 100 nM. The IC50 in assay [2] was less than 10 nM.

Take `CN1CCN(Cc2ccc(-c3ccc(CO[C@H]4CCC[C@@H]4NC(=O)c4cc(-c5ccc(N6CCOCC6)cc5)cnc4N)cc3)cc2)CC1` [Example 381, 2-amino-N-((1S,2S)-2-((4′-((4-methylpiperazin-1-yl)methyl)-[1,1′-biphenyl]-4-yl)methoxy)cyclopentyl)-5-(4-morpholinophenyl)nicotinamide]: the GI50 in assay [1] was less than 100 nM. Moreover, in assay [2], the IC50 was less than 10 nM.

As to `CCc1cc(CO[C@H]2CNC[C@@H]2NC(=O)c2cc(-c3cccnc3)cnc2N)ccc1C` [Example 396, 6-amino-N-((3S,4S)-4-((3-ethyl-4-methylbenzyl)oxy)pyrrolidin-3-yl)-[3,3′-bipyridine]-5-carboxamide], the GI50 in assay [1] was greater than 1000 nM. In assay [2], the IC50 was less than 10 nM.

In the case of `CN1CCN(Cc2ccc(-c3ccc(CO[C@H]4CCC[C@@H]4NC(=O)c4cc(-c5cnn(C)c5)cnc4N)cc3Cl)cc2)CC1` [Example 159, 2-amino-N-((1S,2S)-2-((2-chloro-4′-((4-methylpiperazin-1-yl)-methyl)-[1,1′-biphenyl]-4-yl)methoxy)cyclopentyl)-5-(1-methyl-1H-pyrazol-4-yl)-nicotinamide], the GI50 in assay [1] lay within 100 to 500 nM. Also, the IC50 in assay [2] is less than 10 nM.

Regarding `Cn1cc(-c2cnc(N)c(C(=O)N[C@H]3CCC[C@@H]3OCc3ccc(-c4ccc(CN5CCC(O)CC5)cc4)cc3)c2)cn1` [Example 180, 2-amino-N-((1S,2S)-2-((4′-((4-hydroxypiperidin-1-yl)methyl)-[1,1′-biphenyl]-4-yl)methoxy)cyclopentyl)-5-(1-methyl-1H-pyrazol-4-yl)nicotinamide], the GI50 in assay [1] is greater than 1000 nM. In addition, the IC50 in assay [2] is less than 10 nM.

Regarding `Cc1ccc(CO[C@H]2CCC[C@@H]2NC(=O)c2cc(-c3ccc(C(=O)NC4CCN(C)CC4)cc3)cnc2N)cc1C` [Example 318, 2-amino-N-((1S,2S)-2-((3,4-dimethylbenzyl)oxy)cyclopentyl)-5-(4-((1-methylpiperidin-4-yl)carbamoyl)phenyl)nicotinamide], the GI50 in assay [1] lay within 500 to 1000 nM. Further, in assay [2], the IC50 was less than 10 nM.

On to `CN1CCN(C2(c3ccc(-c4ccc(CO[C@H]5CCC[C@@H]5NC(=O)c5cc(-c6ccc(F)nc6)cnc5N)cc4)cc3)CC2)CC1` [Example 224, 6-amino-6′-fluoro-N-((1S,2S)-2-((4′-(1-(4-methylpiperazin-1-yl)cyclopropyl)-[1,1′-biphenyl]-4-yl)methoxy)cyclopentyl)-[3,3′-bipyridine]-5-carboxamide], for which the GI50 in assay [1] fell in the range of 100 to 500 nM. The IC50 in assay [2] was less than 10 nM.

Regarding `CNc1ccc(-c2ccc(CO[C@H]3CCC[C@@H]3NC(=O)c3cc(-c4cnn(C)c4)cnc3N)cc2)cc1` [Example 136, 2-amino-5-(1-methyl-1H-pyrazol-4-yl)-N-((1S,2S)-2-((4′-(methylamino)-[1,1′-biphenyl]-4-yl)methoxy)cyclopentyl)nicotinamide], the GI50 in assay [1] is 100 to 500 nM. For the same molecule, the IC50 in assay [2] is less than 10 nM.

For the molecule `Cn1cc(-c2cnc(N)c(C(=O)N[C@H]3CCC[C@@H]3OCc3ccc(-c4ccc(C5(N6CCN(CCO)CC6)CC5)cc4)cc3)c2)cn1` [Example 220, 2-amino-N-((1S,2S)-2-((4′-(1-(4-(2-hydroxyethyl)piperazin-1-yl)cyclopropyl)-[1,1′-biphenyl]-4-yl)methoxy)cyclopentyl)-5-(1-methyl-1H-pyrazol-4-yl)nicotinamide], the GI50 in assay [1] was less than 100 nM. The IC50 in assay [2] is less than 10 nM.
